Tests used:
[1] = target: T1, PDE4A (Homo sapiens, UniProt P27815); assay: ITC binding of PTX to the catalytic domain of PDE4A
T1 construct: Catalytic domain of each protein was cloned between BamHI and XhoI restriction sites in; 6xHis-SUMO (N, cleaved yes); made in house; host or cells: E. coli Rosetta 2 (DE3)
Description: (§1) Supplementary Materials and Methods
(§2) Cloning, expression and purification of catalytic domains of PDE4A, […]
(§3) The full length human PDE4A (1005 bp), PDE4D (981 bp) and PDE10A (957 bp) cDNAs, cloned in pET28a(+) expression vector, were purchased from Biomatik, Canada.
(§4) Catalytic domain of each protein was cloned between BamHI and XhoI restriction sites in 6x-His-SUMO-tagged bacterial expression vector. The catalytic domain constructs of PDE4A, PDE4D and PDE10A were transformed in E. coli Rosetta 2 (DE3) competent cells for expression. After growing the transformed cells at 37 °C, till the OD 600nm reached 0.5-0.7, the culture containing constructs of PDE4A and PDE4D were induced with 0.1 mM IPTG and the cultures were incubated at 15 °C for 16-18 h, whereas those with PDE10A constructs were induced with 0.5 mM at incubated for 35 -40 h followed by cell harvesting. Harvested cells were suspended in lysis buffer (500 mM NaCl, 50 mM Tris - Cl pH 8.0, 10 mM Imidazole, 3 mM β-mercaptoethanol) and lysed by sonication (Qsonica). The lysates were cleared by centrifugation at 20,000g for 1h and supernatant was passed through Ni-NTA affinity column (His-Trap, GE Healthcare). Eluted proteins were subjected to salt exchange with a buffer containing 100 mM NaCl, 50 mM Tris-Cl pH 8.0, 3 mM β-mercaptoethanol. The collected proteins were further purified using ion - exchange chromatography (Q column, Hi-Trap, GE Healthcare) followed by overnight treatment with ULP1 at 4 °C to cleave 6xHis-SUMO tag. The tag was separated from proteins by a subsequent Ni-NTA purification. The proteins were further purified on size exclusion 16/600 200 pg column (GE Healthcare) pre-equilibrated with a buffer (100 mM […]
(§5) NaCl, 50 mM Tris pH 8.0, 5% Glycerol, 3 mM β-mercaptoethanol). After purifying with a gel filtration column, purity was determined on 12% SDS -PAGE and all three proteins […]
(§6) concentrated to 20mg/ml, flash cooled with liquid nitrogen and stored at -80°C.
(§7) Isothermal titration calorimetry (ITC) binding studies […]
(§8) of PDE4A, PDE4D and PDE10A were determined at 25°C, using Affinity ITC (TA instruments). […]

[2] = test system: spermatozoa from normozoospermic samples; assay: Sperm DNA integrity by TUNEL assay; details: 24 h in vitro incubation; PTX 1 mM, PTXm-1 0.25 mM; control 6.5%
[3] = target: T2, PDE4D (Homo sapiens, UniProt Q08499); assay: ITC binding of PTX to the catalytic domain of PDE4D
T2 construct: Catalytic domain of each protein was cloned between BamHI and XhoI restriction sites in; 6xHis-SUMO (N, cleaved yes); made in house; host or cells: E. coli Rosetta 2 (DE3)
T2 sequence (Q08499 386-715 limits assumed): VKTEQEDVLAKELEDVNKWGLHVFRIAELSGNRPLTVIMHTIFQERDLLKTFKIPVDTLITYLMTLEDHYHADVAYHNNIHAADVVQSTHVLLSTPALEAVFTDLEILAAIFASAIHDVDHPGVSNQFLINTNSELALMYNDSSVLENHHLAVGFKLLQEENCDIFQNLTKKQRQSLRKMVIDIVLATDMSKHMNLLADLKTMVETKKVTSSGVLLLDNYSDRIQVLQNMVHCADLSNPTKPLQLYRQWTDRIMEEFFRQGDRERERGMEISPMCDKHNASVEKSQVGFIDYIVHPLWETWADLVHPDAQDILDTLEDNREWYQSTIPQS
Description: as §1, §2, §3, §4, §5, §6, §7, §8

[4] = target: T3, PDE10A-PTXm-1 complex (Homo sapiens, UniProt Q9Y233); assay: Competitive ITC: PTX titrated against PDE10A-PTXm-1 complex; assay type: binding
T3 construct: Catalytic domain of each protein was cloned between BamHI and XhoI restriction sites in; 6xHis-SUMO (N, cleaved yes); made in house; host or cells: E. coli Rosetta 2 (DE3)
T3 sequence (Q9Y233 718-1035 limits assumed, one chain of several): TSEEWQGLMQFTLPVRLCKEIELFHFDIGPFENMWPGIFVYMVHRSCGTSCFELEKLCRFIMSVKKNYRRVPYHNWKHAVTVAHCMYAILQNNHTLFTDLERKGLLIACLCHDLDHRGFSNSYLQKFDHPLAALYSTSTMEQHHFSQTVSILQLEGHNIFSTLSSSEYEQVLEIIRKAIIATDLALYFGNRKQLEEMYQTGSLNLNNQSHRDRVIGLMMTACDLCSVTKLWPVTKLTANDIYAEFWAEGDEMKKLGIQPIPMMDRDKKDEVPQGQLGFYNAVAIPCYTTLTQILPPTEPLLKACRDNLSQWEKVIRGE

[5] = test system: intracellular cAMP in spermatozoa; assay: Intracellular cAMP in spermatozoa; assay type: cell-based, human; details: 1 h after incubation; PTX 1 mM, PTXm-1 0.25 mM
Protocol: Sperm suspension was centrifuged at 800 g for 10 min and supernatant obtained was frozen at − 80 °C until further analysis. The cAMP level was measured using cAMP test kit as explained by the manufacturers (Elabscience®, Cat. No. E-EL-0056) as described in our earlier report. Briefly, 50 μL of cAMP detection standard or test samples were added to each well of the multi well plate, followed by addition of biotinylated detection solution (50 μL). After 45 min of incubation at 37 °C, the solutions from each well were decanted. The wells of the plate were further washed 3 times using wash buffer and then incubated with 100 μL horse radish peroxidase (HRP) conjugate for 30 min at 37 °C. Further, each well of the multi well plate was washed repeatedly (5 times) and then incubated with 90 μL substrate reagent for 15 min at 37 °C. Finally, the reaction was stopped by adding 50 μL of stop solution and, immediately OD450nm of the each well was measured using Skanit software 5.0 (Multiskan, Photometer, Thermoscientific). The assay was performed in duplicates and standard curve was plotted. The concentration of cAMP was extrapolated from the standard curve.

[6] = test system: spermatozoa from normozoospermic samples; assay: Calcium ionophore-induced acrosome reaction assay; assay type: cell-based, human; details: PTX 1 mM, PTXm-1 0.25 mM
Protocol: The ionophore-induced acrosome reaction was assessed using a method described earlier. The swim-up fraction collected (at 1 and 2 h after incubation) from various groups were incubated with calcium ionophore A23187 (Sigma-Aldrich, Cat. No. C7522) at 37 °C for 1 h (N = 28, normozoospermic). Sperm suspension was washed with phosphate buffered solution (PBS), centrifuged at 300 g for 10 min and fixed on a coverslip using methanol. The spermatozoa were stained with Fluorescein isothiocyanate-conjugated Pisum sativum agglutinin (FITC-PSA, Sigma-Aldrich, Cat. No. L0770), washed with Milli-Q water, counterstained with propidium iodide (PI) and then mounted on slide using mounting media. Percentage of acrosome reacted spermatozoa (without green florescence in acrosome region) were counted in 500 spermatozoa by observing under fluorescence microscope (400x).

T1 sequence (P27815 357-686 limits assumed): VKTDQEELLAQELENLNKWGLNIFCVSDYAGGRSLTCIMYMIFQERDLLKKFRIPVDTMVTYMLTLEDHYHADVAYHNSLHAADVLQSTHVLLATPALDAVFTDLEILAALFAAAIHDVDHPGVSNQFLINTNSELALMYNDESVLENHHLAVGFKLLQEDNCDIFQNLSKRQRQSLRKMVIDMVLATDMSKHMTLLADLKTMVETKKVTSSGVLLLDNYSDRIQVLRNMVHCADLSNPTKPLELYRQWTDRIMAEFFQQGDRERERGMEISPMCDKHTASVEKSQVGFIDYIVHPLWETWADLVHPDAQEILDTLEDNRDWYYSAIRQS

Row | SMILES | change in enthalpy (ΔH) [1] | change in entropy (ΔS) [1] | stoichiometry (N) [1] | spermatozoa with damaged DNA (TUNEL) [2] | change in enthalpy (ΔH) [3] | change in entropy (ΔS) [3] | stoichiometry (N) [3] | Kd ([4]; PDE10A-PTXm-1 complex with 2:1 molar ratio) | intracellular cAMP level vs control and vehicle control [5] | acrosome reacted spermatozoa ([6]; 1 h, control 15.21%) | acrosome reacted spermatozoa ([6]; 2 h) | decrease of the binding affinity of PTX towards PDE10A in presence of PTXm-1 ([4]; PDE10A-PTXm-1 2:1 molar ratio)
1 | CC(=O)CCCCn1c(=O)c2c(ncn2C)n(C)c1=O [PTX, pentoxifylline] | ~ -8.3±0.30 kcal/mol | ~ -11.90 cal/mol.K | ~ 1.08±0.03 | 10.25% | ~ -10.56±1.07 kcal/mol | ~ -16.47 cal/mol.K | ~ 0.93±0.07 | 350 µM | significantly higher | 24.25% | 34.28% | –
2 | COc1ccc2cc(/C=C/C(=O)CCCCn3c(=O)c4c(ncn4C)n(C)c3=O)ccc2c1 [PTXm-1] | – | – | – | – | – | – | – | – | significantly higher | 15.78% | 25.17% | ~ eight-fold decrease

Reference: paper PMC8192908 (Scientific Reports, 2021)
